Results reported in PubChem BioAssay AID1205 (EPA DSSTox, 2008).
The source made the active and inactive calls.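 Rule for the calls: active = tumour findings in long-term animal cancer tests in more than one sex, species or organ; inactive = no tumour finding and more than one negative test.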

Experiment: DSSTox (CPDBAS) Carcinogenic Potency Database Summary MultiCellCall Results
Details: animal carcinogenicity bioassays, multi-cell call summary
Excerpt: The Carcinogenic Potency Database (CPDB) is a unique and widely used international resource of the results of over 6500 chronic, long-term animal cancer tests on over 1500 chemical substances. The CPDB provides easy access to the bioassay literature, with qualitative and quantitative analyses of both positive and negative experiments that have been published over the past 50 years in the general literature and by the National Cancer Institute/National Toxicology Program. The CPDB standardizes the diverse literature of cancer bioassays that vary widely in protocol, histopathological examination and nomenclature, and in the published author's choices of what information to provide in their papers. Results are reported in the CPDB for tests in rats, mice, hamsters, dogs, and nonhuman primates, and are based on the most positive result among all experiments for each sex-species. The DSSTox CPDBAS (all species) file incorporates data from the CPDB Summary Tables for the full list of over 1500 chemical substances tested in at least one species. A summary MultiCellCall, based on experimental bioassay results of one or more species, is provided in the DSSTox CPDBAS file (see Source URL) for more than 1150 chemical substances.
Associated TD50 values and tumor site details for the relevant species/sex experiment supporting the overall CPDBAS MultiSiteCall are provided in the full DSSTox CPDBAS file (see Comment) and the corresponding CPDBAS Species Bioassay in PubChem. ActivityScore is computed as follows: multispecies=50, multisex=30, multisite=20, with combination scores computed as sums of these values, e.g. multispecies+multisite=70.

SMILES | outcome
[O-][Cl+]O | inactive; multisex inactive; multispecies inactive
COC(N)=O | active; multisex active
FC(F)(F)C(Cl)Cl | active; multisite active; multisex active
O=NN1CCOC1 | active; multisite active; multisex active
O=[N+]([O-])O | inactive; multisex inactive
CN(N=O)C(=O)c1ccccc1 | active; multisite active; multisex active
CC(C)(Oc1ccc(C2CCCc3ccccc32)cc1)C(=O)O (stereo not given) | active; multisite active; multisex active
CCOC(=O)C(O)(c1ccc(Cl)cc1)c1ccc(Cl)cc1 | active; multisex active
O=C(O)c1ccccc1-c1c2cc(I)c(=O)c(I)c-2oc2c(I)c(O)c(I)cc12 | inactive; multisex inactive; multispecies inactive
CC(C)CCCCCCOC(=O)c1ccccc1C(=O)OCCCCCCC(C)C | active; multisite active; multisex active; multispecies active
Cn1c(=O)c2[nH]cnc2n(C)c1=O | inactive; multisex inactive; multispecies inactive
C#CC(OC(N)=O)(c1ccccc1)c1ccc(Cl)cc1 (stereo not given) | active; multisite active
NC(=O)N(CCO)N=O | active; multisite active; multisex active; multispecies active
CN1CCC[C@H]1c1cccnc1 | inactive; multisex inactive
N#Cc1ccc(C2CCCc3cncn32)cc1 (stereo not given) | inactive; multisex inactive
Cc1ccc(O)c(O)c1 | active; multisex active
Clc1ccc(C(c2ccc(Cl)cc2)C(Cl)(Cl)Cl)cc1 | active; multisite active; multisex active; multispecies active
COP(=S)(OC)Oc1ccc([N+](=O)[O-])cc1 | inactive; multisex inactive; multispecies inactive
COc1cc(-c2ccc(N)c(OC)c2)ccc1N | active; multisite active; multisex active; multispecies active
CN(N=O)c1ccc(/C=C/c2ccnc3ccccc23)cc1 | active; multisex active
CCO | active; multisite active
CC[N+]([O-])=NC | active; multisite active
CCCCCCCCCCC(C)c1ccc(S(=O)(=O)O)cc1 (stereo not given) | inactive; multisex inactive
[N-]=[N+]=[N-] | inactive; multisex inactive
CCNN | active; multisite active; multisex active

SMILES | outcome
O=NN1CCSCC1 | active; multisite active; multisex active
CC1=CC(=O)NS(=O)(=O)O1 | inactive; multisex inactive
O=NN(CCCC(F)(F)F)CCCC(F)(F)F | active; multisite active; multisex active
COC(=O)C(c1ccccc1)C1CCCCN1 (stereo not given) | active; multisex active
CCC[N+](=O)[O-] | inactive; multisex inactive
Cc1ccc(N=Nc2c(O)ccc3ccccc23)c([N+](=O)[O-])c1 | active; multisite active; multisex active; multispecies active
O=[N+]([O-])c1ccc(Cl)cc1 | active; multisite active; multisex active
Cc1ccc(N)cc1N | active; multisite active; multisex active; multispecies active
CNc1ncnc2c1ncn2[C@@H]1O[C@H](CO)[C@@H](O)[C@H]1O | inactive; multisex inactive
c1ccoc1 | active; multisite active; multisex active; multispecies active
COc1c(Cl)c(Cl)c(Cl)c(Cl)c1Cl | active; multisite active; multispecies active
[O]=[Mo](=[O])=[O] | active; multisex active
O.[Cd+2].[Cl-].[Cl-] | inactive; multisex inactive
CC(=O)O[C@H]1CC[C@@]2(C)C(=CC[C@@H]3[C@@H]2CC[C@]2(C)C(=O)CC[C@@H]32)C1 | active; multisex active
CC(CCl)OC(C)CCl (stereo not given) | active; multisite active; multisex active
CCCCCN(N=O)C(N)=O | active; multisite active; multisex active
C1CCCNCCC1 | inactive; multisex inactive
Nc1ccc(Oc2ccc(N)cc2)cc1 | active; multisite active; multisex active; multispecies active
CC(C)(Oc1ccc(C2CC2(Cl)Cl)cc1)C(=O)O (stereo not given) | active; multisite active; multisex active; multispecies active
COc1cc2c(c3oc(=O)c4c(c13)CCC4=O)C1C=COC1O2 (stereo not given) | active; multisite active; multisex active; multispecies active
C=CCO | inactive; multisex inactive
Clc1ccc2c(c1)Oc1ccc(Cl)cc1O2 | inactive; multisex inactive; multispecies inactive
O=C(O)CNCC(=O)O | inactive; multisex inactive
C=C/C1=C/[C@H](C)[C@](C)(OC(C)=O)C(=O)OCC2=CC[N+]3(C)CC[C@@H](OC1=O)C23[O-] (stereo not given in full) | active; multisite active
Nc1ccc(-c2ccc(N)c(Cl)c2)cc1Cl | active; multisite active; multisex active; multispecies active

SMILES | outcome
CC(=O)Nc1ccc(N=Nc2cc(C)ccc2O)cc1 | active; multisex active; multispecies active
Cc1ccc([N+](=O)[O-])cc1N | active; multisite active; multisex active
Cc1ccc2ccccc2c1 | inactive; multisex inactive
CC(=O)OC/C=C(\C)CCC=C(C)C | inactive; multisex inactive; multispecies inactive
O=[N+]([O-])c1cccc2ccccc12 | inactive; multisex inactive; multispecies inactive
CC1(C)[C@H](C(=O)O[C@H](C#N)c2cccc(Oc3ccccc3)c2)[C@@H]1C=C(Br)Br | inactive; multisex inactive; multispecies inactive
O=P(OCCCl)(OCCCl)OCCCl | active; multisite active; multisex active; multispecies active
Nc1nnc(-c2ccc([N+](=O)[O-])o2)o1 | active; multisite active
Clc1ccc(C(c2ccccc2Cl)C(Cl)Cl)cc1 (stereo not given) | inactive; multisex inactive
CCN(N)C=O | active; multisite active; multisex active
CC1=C(C(=O)OCCN(Cc2ccccc2)c2ccccc2)C(c2cccc([N+](=O)[O-])c2)C(P2(=O)OCC(C)(C)CO2)=C(C)N1 (stereo not given) | inactive; multisex inactive; multispecies inactive
O=[N+]([O-])c1ccc(NCCO)c(OCCO)c1 | inactive; multisex inactive; multispecies inactive
CCN(N=O)C(N)=O | active; multisite active; multisex active
O=C1c2ccccc2C(=O)c2c(O)cccc21 | active; multisite active
CN1C(=O)C(O)N=C(c2ccccc2)c2cc(Cl)ccc21 (stereo not given) | inactive; multisex inactive
C/C=C1/C[C@@H](C)[C@](O)(CO)C(=O)OCC2=CC[N+]3([O-])CC[C@@H](OC1=O)[C@@H]23 (stereo not given in full) | active; multisex active
COC(=O)NN | inactive; multisex inactive
O=C(OOC(=O)c1ccccc1)c1ccccc1 | inactive; multispecies inactive
C1CO1 | active; multisite active; multisex active; multispecies active
C[C@]12CC[C@H](O)CC1=CC[C@@H]1[C@@H]2CC[C@]2(C)C(=O)CC[C@@H]12 | active; multisex active
O=C/C=C/O | active; multisite active; multisex active; multispecies active
CN(C)C(=O)Cl | active; multisite active; multisex active; multispecies active
O=NN1CCNCC1 | active; multisite active; multisex active
COc1cccc2c1cc([N+](=O)[O-])c1c(C(=O)O)cc3c(c12)OCO3 | active; multisex active
C=CC(=O)O | inactive; multisex inactive
